Assays:
[1] = test system: adiponectin; experiment: 24-week randomized, double-blind, placebo-controlled study: serum adiponectin levels in subjects with type 2 diabetes; assay type: in vivo, human; settings: for Mean Adiponectin Week 24 / Mean Adiponectin Week 0: type 2 diabetes subjects; for Mean Adiponectin Week 0: baseline (Week 0)
Procedure: A randomized, double-blind, placebo-controlled, 24-week study was conducted in which adiponectin levels were measured. […] 367 subjects with type 2 diabetes (TD2)—a disease in which patient adiponectin levels are reduced-were randomly assigned to receive either 0.5, 1, 2 or 3 milligrams (“mg”) of INT131 besylate, 45 mg of pioglitazone or placebo daily for 24 weeks. To measure adiponectin levels blood was drawn at Weeks 0, 2, 6, 12 and 24.
At baseline (Week 0) mean adiponectin levels were 1.94 micrograms per milliliter (“μg/mL”). The mean adiponectin levels at baseline and Week 24, and the mean change in adiponectin levels from baseline (Week 0) to Week 24 are disclosed in Table 1, below. The standard deviation for samples tested in each group is listed in (parenthesis). Mean baseline adiponectin values were similar for the treatment groups.

[2] = test system: adiponectin; experiment: 14-day study: serum adiponectin levels in healthy subjects; assay type: in vivo, human; settings: 0.1 mg INT131 daily for 14 days
Procedure: A study was conducted to determine the effect of INT131 on serum adiponectin levels. Thirty healthy subjects were randomly selected to receive either placebo, 0.1 mg INT131, 1 mg INT131 or 4 mg INT131 daily for 14 days. To measure adiponectin levels blood was drawn at Days 1, 4, 8 and 14.

[3] = subjects taking INT131 vs those taking pioglitazone; DePaoli et al. 2014; cited from earlier work

SMILES	Mean Adiponectin Week 24 ([1]; Week 24, 45 mg pioglitazone daily) [µg/mL]	Mean Adiponectin Week 0 ([1]; 45 mg pioglitazone daily group) [µg/mL]	change in serum adiponectin levels from Day 1 to Day 14 and over placebo [2]	edema, weight gain and hemodilution versus pioglitazone [3]	treatment comparison of adiponectin levels with pioglitazone 45 mg ([1]; 0.5 mg, 1 mg and 3 mg doses of INT131 vs pioglitazone 45 mg, p≤0.0408)	treatment comparison of adiponectin levels with placebo ([1]; 1 mg, 2 mg and 3 mg doses of INT131 vs placebo, p≤0.0109)	Mean Adiponectin Week 24 ([1]; Week 24, 0.5 mg INT131 daily) [µg/mL]	Mean Adiponectin Week 24 ([1]; Week 24, 1 mg INT131 daily) [µg/mL]	Mean Adiponectin Week 24 ([1]; Week 24, 2 mg INT131 daily) [µg/mL]	Mean Adiponectin Week 24 ([1]; Week 24, 3 mg INT131 daily) [µg/mL]	Mean Adiponectin Week 0 ([1]; 0.5 mg INT131 daily group) [µg/mL]	Mean Adiponectin Week 0 ([1]; 1 mg INT131 daily group) [µg/mL]	Mean Adiponectin Week 0 ([1]; 2 mg INT131 daily group) [µg/mL]	Mean Adiponectin Week 0 ([1]; 3 mg INT131 daily group) [µg/mL]
CCc1ccc(CCOc2ccc(CC3SC(=O)NC3=O)cc2)nc1 (centres unmarked) [Pioglitazone, pioglitazone, reference compound]	5.28	2.32												
O=S(=O)(Nc1cc(Cl)c(Oc2cnc3ccccc3c2)c(Cl)c1)c1ccc(Cl)cc1Cl [INT131]			no significant change	less edema, weight gain, and hemodilution	statistically significant	statistically significant	2.28	3.15	5.14	5.83	1.73	1.87	1.87	2.00
